According to patent US20060148104A1, “Detection of ion channel or receptor activity” (Massachusetts Institute of Technology, priority 2004, published 2006):
Entries after “also recorded” stand apart in the source; their conditions may differ. Ends that are not written are not given here.

Experiments:
TRPV3-EGFP-cc [1] = test: whole-cell patch clamp recordings, HEK293T cells transiently transfected with TRPV3-EGFP-cc; assay type: cell-based, Mouse; conditions: 100 μM 2APB
From the text: (§1) Cloning of TRPV3, TRPV1 and P2X2 into the EGFP-cc and EGFP-barstar vectors. The multiple cloning site (MCS) 3′ of the EGFP-C1 vector is not affected by the heptad repeat or barstar insertion described above, i.e., the restriction sites at the 3 prime end of EGFP are identical to the original EGFP-C1 clone. This MCS was used to clone each of three different ion channel subunits in-frame with the EGFP-heptad repeat module or EGFP-barstar module that had been inserted into the EGFP-C1 vector. Mouse TRPV3 cDNA was amplified either from total mouse cDNA or from plasmids containing the appropriate subunit sequence by PCR using the following primers: […]
(§2) Transient transfection of COS and HEK cells. COS or HEK cells were transfected using Lipofectamine 2000 (Invitrogen) according to the manufacture's protocol. In brief, 2 μg of the respective DNA plasmid were incubated for 30 min with 6 μl of Lipofectamine in 200 μl of Optimem medium (Gibco) at room temperature. Cells were incubated with the DNA-Lipofectamine complex for 3 h at 37 degrees Celsius in 500 μl Optimem medium. Afterwards the medium was replaced with DMEM containing 10% FCS. Cells were assayed for expression and activity of the engineered ion channels 24-48 h after transfection.
(§3) Characterization of functional activity of engineered ion channel subunits. […]

TRPV3-EGFP = test: whole-cell patch clamp recordings, HEK293T cells transiently transfected with TRPV3-EGFP; assay type: cell-based, Mouse; conditions: 100 μM 2APB
From the text: as §1, §2, §3

COS cells = test: FRET-based calcium sensing inside living COS cells (quantum dots + Calcium Crimson); assay type: cell-based; conditions: 405 nm laser; COS cells with internalized quantum dots and Calcium Crimson
Method: Quantum dot nanoparticles with an absorption peak at ˜405 nm and an emission peak at ˜580 nm (“Birch Yellow, Type 2”, Evident Corp.) were internalized by COS cells that had been previously loaded with a calcium-sensitive dye with absorption ˜580 nm, emission ˜620 nm (Calcium Crimson; Invitrogen N. C-3018). Dye loading was performed according to the directions of the manufacturer, and electroporation was used to enhance nanoparticle uptake. Live cells were illuminated with a 405 nm laser and emission from the sample was collected through a narrow bandgap filter centered around 620 nm. […] Since the calcium-sensitive dye cannot be excited by the 405 nm laser, their activation is due to FRET from the nanoparticles. The image is a snapshot from a movie taken at mid-plane section of a cell via confocal microscopy.

[2] = molecular target: complementary peptides EIAALEK-EIAALEK-EIAALEK / KIAALKE-KIAALKE-KIAALKE; conditions: heterodimer (78); read-out: dissociation constant; cited from earlier work
EGFP-cc = test: pull-down of EGFP-cc from cell lysate by functionalized nanoparticles, Western blot; assay type: binding; conditions: for pull-down / binding of EGFP-cc: lysate of cells expressing EGFP-cc, anti-EGFP Western blot
From the text: Nanoparticle synthesis and conjugation. Dye-doped silica nanoparticles containing the fluorescent dye tris (2,2′-bipyridine) dichlororuthenium (II) hexahydrate) (Ru(bpy)) were synthesized following the reverse microemulsion procedure described by Tan and coworkers (35). These particles are approximately 40 nm in diameter and can be dispersed in de-ionized water. To impart biocompatibility (stability in PBS and other physiological buffers), particles were coated with bovine serum albumin (BSA) by mixing the nanoparticles in aqueous solution with an equal volume of freshly prepared BSA solution (1% weight in water). The mixture was incubated at room temperature for 1 h, after which it was brought to a standard PBS concentration by addition of an appropriate amount of concentrated PBS solution (10× PBS) and left standing overnight at room temperature. Excess BSA was then removed by repeated cycles of centrifugation (12 min at 9,500 rpm), removal of the supernatant and resuspension in PBS (a step involving bath sonication for a few minutes).
Conjugation of the nanoparticles to the recognition domain peptide CGG-(KVSALKE)3, (SEQ ID NO: 44) which contains a three amino acid spacer (CGG) followed by three copies of the KVSALKE (SEQ ID NO: 1) heptad sequence (cc, custom synthesized by the MIT biopolymer lab) was achieved using commercial crosslinking chemistry. Amine groups on the surface of BSA-coated nanoparticles (there are 35 lysine groups accessible at the surface of each BSA molecule) were activated by transferring the nanoparticles to a solution of 10 μM or 100 μM freshly prepared MBS (an amine-to-thiol crosslinker, available from Pierce Biotechnology) in PBS. After 20 min incubation, nanoparticles were washed by centrifugation and resuspension in a conjugation buffer (PBS at pH 7 and 1 mM EDTA). Since the recognition peptide contains a cysteine (chosen for conjugation), reduction of possible disulfide bonds was performed (using TCEP reducing gel, Pierce Biotechnology) before addition to the activated nanoparticles. Conjugation was completed by adding the reduced peptide at a concentration of 10 μM or 100 μM to nanoparticles activated with MBS at the same respective concentrations. After peptide addition, nanoparticles were incubated overnight in a gently rotating tube at 4° C., after which they were washed 3 times in PBS.
HEK 293T cells were transiently transfected with a construct encoding either EGFP or the EGFP-cc construct containing (EVSALEK)4 (SEQ ID NO: 4) fused to the N-terminus of EGFP as described in Example 6. 2×10^6 cells were lysed in 200 μl Lysis buffer (PBS, pH7.4 with 1% Triton-X100) and afterwards diluted with 800 μl PBS to obtain 1 ml of cell lysate with 0.2% Triton-X100. Pull-down experiments were performed by incubating 100 μL of nanoparticles with 900 μL of cell lysate for one hour at 4° C. (with gentle rotation). Particles were then centrifuged (12 min at 9,500 rpm) and the supernatant removed. After brief washing of the pellet with 100 μL of PBS, particles were resuspended by sonication in 50 μL of PBS and the resulting solution analyzed by Western blot using antibodies to EGFP (Covance) according to standard methods.

TRPV3-EGFP-cc [3] = test: pull-down of engineered ion channel subunit TRPV3-EGFP-cc from cell lysate by functionalized nanoparticles, Western blot; assay type: binding, Mouse
Method: Nanoparticle synthesis and conjugation. These were performed as described in the previous example.
Pull-down experiments. These were performed essentially as described in the previous example except that (i) two different ratios of peptides/nanoparticle (10 μM or 100 μM peptide) were used to test their effect on binding ability; and (ii) lysates were made from cells that expressed engineered ion channel subunits TRPV3-EGFP-cc and TRPV3-EGFP, which are described in Example 6.

## NCCOB(c1ccccc1)c1ccccc1 [2APB]
TRPV3-EGFP-cc [1]
  reversibility of the 2APB effect: quickly washed out
TRPV3-EGFP-cc [1]; voltage ramp −100 mV to +100 mV, compared with TRPV3-EGFP
  response of cells to application of 2APB (whole-cell current): responded similarly
TRPV3-EGFP
  reversibility of the 2APB effect: quickly washed out
TRPV3-EGFP; voltage ramp −100 mV to +100 mV, compared with TRPV3-cc
  response of cells to application of 2APB (whole-cell current): responded similarly

## C/C=C(/C)C(=O)O[C@H]1C(C)=C2[C@H]([C@@H]1OC(=O)CCCCCCC)[C@@](C)(OC(C)=O)C[C@H](OC(=O)CCC)[C@@]1(O)[C@H]2OC(=O)[C@@]1(C)O [thapsigargin]
COS cells
  emission at 620 nm upon addition of compound (calcium signal by FRET): flashes of light (orange dots) were detected only in the immediate vicinity of the nanoparticles

## EIAALEK-EIAALEK-EIAALEK (SEQ ID NO: 5) and KIAALKE-KIAALKE-KIAALKE (SEQ ID NO: 6) (chain 1 EIAALEKEIAALEKEIAALEK; chain 2 KIAALKEKIAALKEKIAALKE; Complementary peptides) [IAAL-E3/K3 coiled-coil]
[2]
  Kd: 0.07 µM

## NP-cc: BSA-coated Ru(bpy) dye-doped silica nanoparticles (~40 nm) conjugated to recognition peptide CGG-(KVSALKE)3 (SEQ ID NO: 44) (CGGKVSALKEKVSALKEKVSALKE; also: Cys crosslinked to BSA-coated Ru(bpy) dye-doped silica nanoparticles)
EGFP-cc; different amounts of CGG-(KVSALKE)3 conjugated, data not shown
  dependence of amount of EGFP-cc pulled down on amount of peptide conjugated: proportional to the number of heptad repeat peptides conjugated to the nanoparticles
EGFP-cc
  pull-down / binding of EGFP-cc: only NP-cc can pull down EGFP-cc; also recorded: confirm the binding
EGFP-cc; listed as functionalized nanoparticles
  pull-down / binding of EGFP-cc: strong band at the position expected for EGFP-cc
EGFP-cc; nanoparticles conjugated with 10 μm peptide
  pull-down of EGFP-cc: did not result in detectable pull-down
EGFP-cc; nanoparticles conjugated with 100 μm peptide
  pull-down of EGFP-cc: presence of EGFP-cc
TRPV3-EGFP-cc [3]; lysate of cells expressing TRPV3-EGFP-cc, anti-EGFP Western blot
  binding to ion channel subunit containing the complementary target domain: confirm the binding
TRPV3-EGFP-cc [3]; nanoparticles conjugated with 10 μM peptide (lane 6)
  pull-down of TRPV3-EGFP-cc: only a small amount of pull-down
